# Tested on: 313798-341-R-J2-PDC spheroids, viability
# Assay: Anticancer human tumor 313798-341-R-J2-PDC patient-derived cervical squamous cell carcinoma cell line growth inhibition [PI3K]
# Conditions: spheroids with HUVEC and MSC; for IC50: curve of first compound; for viability, T/C: stronger effect = lower value
# Outline: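 Viability of mixed-cell spheroids was determined after exposure to pairwise combinations, one partner being inavolisib, alpelisib, duvelisib or copanlisib. Highest tested concentration matched clinical Cmax where known and 10 microM where not, descending in half-log steps.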
# [1] = second compound 0.0316 µM, first compound 0.0316 µM
# [2] = second compound 0.0316 µM, first compound 0.1 µM
# [3] = second compound 0.0316 µM, first compound 0.316 µM
# [4] = second compound 0.0316 µM, first compound 1 µM
# [5] = second compound 0.0316 µM, first compound 3.16 µM
# [6] = second compound 0.0316 µM, first compound 10 µM
# [7] = second compound 0.1 µM, first compound 0.0316 µM
# [8] = second compound 0.1 µM, first compound 0.1 µM
# [9] = second compound 0.1 µM, first compound 0.316 µM
# [10] = second compound 0.1 µM, first compound 1 µM
# [11] = second compound 0.1 µM, first compound 3.16 µM
# [12] = second compound 0.1 µM, first compound 10 µM
# [13] = second compound 0.316 µM, first compound 0.0316 µM
# [14] = second compound 0.316 µM, first compound 0.1 µM
# [15] = second compound 0.316 µM, first compound 0.316 µM
# [16] = second compound 0.316 µM, first compound 1 µM
# [17] = second compound 0.316 µM, first compound 3.16 µM
# [18] = second compound 0.316 µM, first compound 10 µM
# [19] = second compound 1 µM, first compound 0.0316 µM
# [20] = second compound 1 µM, first compound 0.1 µM
# [21] = second compound 1 µM, first compound 0.316 µM
# [22] = second compound 1 µM, first compound 1 µM
# [23] = second compound 1 µM, first compound 3.16 µM
# [24] = second compound 1 µM, first compound 10 µM
# 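Also: spheroids exposed to compounds for seven days.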
# 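For viability, T/C in this document: 100% = DMSO vehicle control viability.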
smiles,measurement,setting,value
Cn1nccc1Nc1nccc(-c2ccn(C(CO)c3ccc(Cl)c(F)c3)c(=O)c2)n1 (centres undefined) + Cc1nc(NC(=O)N2CCCC2C(N)=O)sc1-c1ccnc(C(C)(C)C(F)(F)F)c1,IC50,second compound 0.0316 µM,> 10 µM
same,IC50,second compound 0.1 µM,> 10 µM
same,IC50,second compound 0.316 µM,> 10 µM
same,IC50,second compound 1 µM,> 10 µM
same,IC50,second compound 3.16 µM,5.98 µM
same,IC50,second compound 10 µM,< 0.0316 µM
same,"viability, T/C",[1],102%
same,"viability, T/C",[2],90%
same,"viability, T/C",[3],92.9%
same,"viability, T/C",[4],102%
same,"viability, T/C",[5],102%
same,"viability, T/C",[6],109%
same,"viability, T/C",[7],95.7%
same,"viability, T/C",[8],103%
same,"viability, T/C",[9],99%
same,"viability, T/C",[10],103%
same,"viability, T/C",[11],113%
same,"viability, T/C",[12],106%
same,"viability, T/C",[13],97.4%
same,"viability, T/C",[14],102%
same,"viability, T/C",[15],103%
same,"viability, T/C",[16],98.8%
same,"viability, T/C",[17],109%
same,"viability, T/C",[18],103%
same,"viability, T/C",[19],88.8%
same,"viability, T/C",[20],81.3%
same,"viability, T/C",[21],91.9%
same,"viability, T/C",[22],90.4%
same,"viability, T/C",[23],89.4%
same,"viability, T/C",[24],71.3%
same,"viability, T/C","second compound 3.16 µM, first compound 0.0316 µM",57.9%
same,"viability, T/C","second compound 3.16 µM, first compound 0.1 µM",60.4%
same,"viability, T/C","second compound 3.16 µM, first compound 0.316 µM",55.7%
same,"viability, T/C","second compound 3.16 µM, first compound 1 µM",56.5%
same,"viability, T/C","second compound 3.16 µM, first compound 3.16 µM",52.9%
same,"viability, T/C","second compound 3.16 µM, first compound 10 µM",45.4%
same,"viability, T/C","second compound 10 µM, first compound 0.0316 µM",35.4%
same,"viability, T/C","second compound 10 µM, first compound 0.1 µM",22.1%
same,"viability, T/C","second compound 10 µM, first compound 0.316 µM",31.6%
same,"viability, T/C","second compound 10 µM, first compound 1 µM",26.8%
same,"viability, T/C","second compound 10 µM, first compound 3.16 µM",29.2%
same,"viability, T/C","second compound 10 µM, first compound 10 µM",24.1%
C=CC(=O)N1CCN(c2nc(=O)n(-c3c(C)ccnc3C(C)C)c3nc(-c4c(O)cccc4F)c(F)cc23)C(C)C1 (centres undefined) + COc1c(OCCCN2CCOCC2)ccc2c3n(c(=NC(=O)c4cnc(N)nc4)nc12)CCN3,IC50,second compound 0.00316 µM,> 10 µM
same,IC50,second compound 0.01 µM,> 10 µM
same,IC50,second compound 0.0316 µM,> 10 µM
same,IC50,second compound 0.1 µM,< 0.0316 µM
same,IC50,second compound 0.316 µM,< 0.0316 µM
same,IC50,second compound 1 µM,< 0.0316 µM
same,"viability, T/C","second compound 0.00316 µM, first compound 0.0316 µM",98.3%
same,"viability, T/C","second compound 0.00316 µM, first compound 0.1 µM",103%
same,"viability, T/C","second compound 0.00316 µM, first compound 0.316 µM",106%
same,"viability, T/C","second compound 0.00316 µM, first compound 1 µM",96.1%
same,"viability, T/C","second compound 0.00316 µM, first compound 3.16 µM",101%
same,"viability, T/C","second compound 0.00316 µM, first compound 10 µM",106%
same,"viability, T/C","second compound 0.01 µM, first compound 0.0316 µM",92%
same,"viability, T/C","second compound 0.01 µM, first compound 0.1 µM",99.4%
same,"viability, T/C","second compound 0.01 µM, first compound 0.316 µM",106%
same,"viability, T/C","second compound 0.01 µM, first compound 1 µM",112%
same,"viability, T/C","second compound 0.01 µM, first compound 3.16 µM",112%
same,"viability, T/C","second compound 0.01 µM, first compound 10 µM",96.5%
same,"viability, T/C",[1],70.6%
same,"viability, T/C",[2],80.3%
same,"viability, T/C",[3],91.4%
same,"viability, T/C",[4],90.4%
same,"viability, T/C",[5],83.6%
same,"viability, T/C",[6],82.9%
same,"viability, T/C",[7],44.8%
same,"viability, T/C",[8],48.9%
same,"viability, T/C",[9],52.1%
same,"viability, T/C",[10],48.7%
same,"viability, T/C",[11],50.1%
same,"viability, T/C",[12],42.9%
same,"viability, T/C",[13],16.8%
same,"viability, T/C",[14],17.9%
same,"viability, T/C",[15],15.4%
same,"viability, T/C",[16],18.2%
same,"viability, T/C",[17],19.1%
same,"viability, T/C",[18],13.5%
same,"viability, T/C",[19],12%
same,"viability, T/C",[20],12.6%
same,"viability, T/C",[21],12.8%
same,"viability, T/C",[22],13.7%
same,"viability, T/C",[23],14.6%
same,"viability, T/C",[24],10.2%
